Assay: Inhibition constant(Ki) for inhibition of PPIase activity of Legionella pneumophilia FK506 binding protein 25 (Conc=40 nM) of FKBPs family

**Q.** Which Ki does the source give for C[C@@H]1C[C@@H]([C@H](O)CC2CC(=O)NC(=O)C2)C(=O)[C@@H](C)C1 [Cycloheximid] here?
**A.** 124 µM
